Structures can show the parent of a compound that is named as a salt.
What was measured:
[1] = target: T1, thromboxane synthetase (Oryctolagus cuniculus, UniProt G1TAZ9); assay: Inhibitory potency of imidazole compounds on thromboxane synthetase (conversion of prostaglandin H2 to thromboxane B2 by rabbit platelet microsomes); type: biochemical; settings: 24° C., 1 minute
T1 construct: from tissue; host or cells: rabbit platelets (microsomes)
T1 sequence (G1TAZ9 1-530): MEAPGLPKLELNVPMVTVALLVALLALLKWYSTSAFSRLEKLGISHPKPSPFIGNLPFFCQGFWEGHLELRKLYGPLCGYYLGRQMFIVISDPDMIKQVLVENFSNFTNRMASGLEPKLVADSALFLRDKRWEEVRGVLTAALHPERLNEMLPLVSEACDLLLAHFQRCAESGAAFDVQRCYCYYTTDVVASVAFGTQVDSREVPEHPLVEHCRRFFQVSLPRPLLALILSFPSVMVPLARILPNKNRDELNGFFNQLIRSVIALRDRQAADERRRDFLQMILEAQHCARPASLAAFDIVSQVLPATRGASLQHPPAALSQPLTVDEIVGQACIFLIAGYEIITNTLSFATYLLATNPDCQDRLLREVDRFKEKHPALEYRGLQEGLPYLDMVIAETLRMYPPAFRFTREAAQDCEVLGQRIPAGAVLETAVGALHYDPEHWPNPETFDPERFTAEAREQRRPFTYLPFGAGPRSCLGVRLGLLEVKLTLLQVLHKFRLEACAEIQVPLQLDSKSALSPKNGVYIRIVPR
Method: (1-C^14)-Prostaglandin H2, obtained by the enzymatic biosynthesis with ram seminal vesicle microsomes and (1-C^14)-arachidonic acid, was incubated with rabbit platelet microsomes containing 0.025 μM and 0.5 μM of the test compound at 24° C. for 1 minute. The termination of the reaction and the extraction of a radioactive materials were carried out by the addition of a mixture of ethyl acetate/methanol/0.2 M citric acid (30:4:1 by volume). […] A spot of thromboxane B2 was counted by a packard Radiochromatogram Scanner.

[2] = system: thromboxane synthetase; settings: in words; reported in the literature; cited from earlier work
[3] = Acute toxicity (LD50), intravenous, mice; settings: mouse, in vivo, dd-stain male mice, 7 weeks old, Behrens-Karber method, read-out: median lethal dose (LD50)
Method: The median lethal dose (LD50) of N-(7-carboxyheptyl)imidazole and N-(6-methoxycarbonylhexyl)imidazole (known compound) were determined in dd-stain male mice (7 weeks old) by intravenous administration. The LD50 values were calculated according to the Behrens-Karber method.

[4] = system: thromboxane synthetase; assay: Inhibitory effect on thromboxane synthetase, general statements; type: biochemical; settings: in words

Row | Compound | inhibition at 0.025 µM [1] [%] | inhibition at 0.5 µM [1] [%] | other results
1 | O=C(O)CCCCCCn1ccnc1 [N-(6-carboxyhexyl)imidazole hydrochloride] | 10.1 | 76.1 | 
2 | Cn1ccnc1 [1-methylimidazole] |  |  | inhibitory action for thromboxane synthetase [2]: weak
3 | O=C(O)CCCCCCCCn1ccnc1 [N-(8-carboxyoctyl)imidazole hydrochloride] | 42.2 | 90.8 | 
4 | O=C(O)CCCCCCCn1ccnc1 [N-(7-carboxyheptyl)imidazole, 1-(7-Carboxyheptyl)imidazole] |  |  | LD50 [3]: 560 mg/kg
5 | O=C(O)CCCCCCCn1ccnc1 [1-(7-Carboxyheptyl)imidazole Hydrochloride] | 31.2 | 89 | 
6 | O=C(O)CCCCCCCCCCn1ccnc1 [N-(10-carboxydecyl)imidazole hydrochloride] | 9.2 | 40.4 | 
7 | COC(=O)CCCCCCn1ccnc1 [N-(6-methoxycarbonylhexyl)imidazole, reference compound] | 5.5 | 25.7 | inhibitory effect on thromboxane synthetase compared with imidazole or 1-methylimidazole [4]: stronger inhibitory effect; inhibitory effect on thromboxane synthetase, suitability as medication [4]: not completely satisfactory as a practical medication; LD50 [3]: 140 mg/kg
8 | O=C(O)CCCCCCCCCCCn1ccnc1 [N-(11-carboxyundecyl)imidazole hydrochloride] | 13.8 | 46.8 | 
9 | c1c[nH]cn1 [imidazole] |  |  | inhibitory action for thromboxane synthetase [2]: weak
10 | O=C(O)CCCCCCCCCn1ccnc1 [N-(9-carboxynonyl)imidazole hydrochloride] | 20.2 | 72.5 | 

Source: patent US4320134A, “Inhibiton of thromboxane synthetase with 1-substituted imidazole compounds” (Ono Pharmaceutical Co., Ltd., priority 1978, dated 1982)
